Where two headings read alike, the source gives them in different places.
System: Peripheral human blood mononuclear cells PBMCs
Details: for Cytokine Profile: after 7 days
Description: Peripheral human blood mononuclear cells PBMCs, which is a collection of white blood cells comprising about 40% T-cells, were stressed by contact with aqueous solutions of hydrogen peroxide, of various concentrations, for 20 minutes. Their immediate survival was measured, along with their immediate phytohaemagglutinin (PHA) response. Then their survival after 24 hours was measured, followed by their PHA response (tritiated thymidine uptake following mitogenic stimulation with PHA) and cytokine profile after 7 days.

OO [Example H2O2, hydrogen peroxide]
24 hr survival % (100 μmole/L H2O2, 20 minutes): 100% | Immediate PHA response (100 μmole/L H2O2, 20 minutes): 2000 | Immediate survival % (100 μmole/L H2O2, 20 minutes): 80-90% | Cytokine Profile (100 μmole/L H2O2, 20 minutes): IFN↓ | 24 hr survival % (300 μmole/L H2O2, 20 minutes): 50% | Immediate PHA response (300 μmole/L H2O2, 20 minutes): 2000 | Immediate survival % (300 μmole/L H2O2, 20 minutes): 80-90% | Cytokine Profile (300 μmole/L H2O2, 20 minutes): IFN↓ | 24 hr survival % (1 mmole/L H2O2, 20 minutes): 40% | Immediate PHA response (1 mmole/L H2O2, 20 minutes): 400 | Immediate survival % (1 mmole/L H2O2, 20 minutes): 80-90% | Cytokine Profile (1 mmole/L H2O2, 20 minutes): IFN↓ | 24 hr survival % (3 mmole/L H2O2, 20 minutes): 40% | Immediate PHA response (3 mmole/L H2O2, 20 minutes): 400 | Immediate survival % (3 mmole/L H2O2, 20 minutes): 80-90% | Cytokine Profile (3 mmole/L H2O2, 20 minutes): IFN↓

Source: patent US20010028879A1, “Inhibition of graft versus host disease” (priority 1998, published 2001)
